Experimental data reported in patent US20220104493A1, “HERBICIDAL COMPOUNDS” (SYNGENTA CROP PROTECTION AG, priority 2019, published 2022).
Read-outs that look alike come from different tables or passages of the source.

How the values were obtained:
Experiment in all cases: Post-emergence efficacy, Method A
Type in all cases: in vivo
Lolium perenne (LOLPE) = details: read-out: Control of weed species after post-emergence application, LOLPE
[1] = system: Echinochloa crus-galli (ECHCG); details: read-out: Control of weed species after post-emergence application, ECHCG
[2] = system: Chenopodium album (CHEAL); details: read-out: Control of weed species after post-emergence application, CHEAL
[3] = system: Digitaria sanguinalis (DIGSA); details: read-out: Control of weed species after post-emergence application, DIGSA
Setaria faberi (SETFA) = details: read-out: Control of weed species after post-emergence application, SETFA
[4] = system: Ipomoea hederacea (IPOHE); details: read-out: Control of weed species after post-emergence application, IPOHE
[5] = system: Euphorbia heterophylla (EPHHL); details: read-out: Control of weed species after post-emergence application, EPHHL
[6] = system: Amaranthus palmeri (AMAPA); details: read-out: Control of weed species after post-emergence application, AMAPA
Eleusine indica (ELEIN) = details: read-out: Control of weed species after post-emergence application, ELEIN
[7] = 500 g/Ha, 100=total damage to plant, 0=no damage, evaluated after 7 and 14 days
[8] = 125 g/Ha, 100=total damage to plant, 0=no damage, evaluated after 7 and 14 days

Row | Compound | pest or weed control at 500 g/ha (Lolium perenne (LOLPE); [7]) | pest or weed control at 500 g/ha [1, 7] | pest or weed control at 500 g/ha [2, 7] | pest or weed control at 500 g/ha [3, 7] | pest or weed control at 500 g/ha (Setaria faberi (SETFA); [7]) | pest or weed control at 500 g/ha [4, 7] | pest or weed control at 500 g/ha [5, 7] | pest or weed control at 500 g/ha [6, 7] | pest or weed control at 500 g/ha (Eleusine indica (ELEIN); [7]) | other results
1 | COC(=O)C[n+]1ccc(-c2nnco2)cc1 [Compound A16] | 0% | 20% | 0% | 40% | 30% | 20% | 20% | 0% | 10% | –
2 | O=S(=O)([O-])CCC[n+]1ccc(-c2nnco2)cc1 [Compound A17] | 0% | 30% | 70% | 40% | 40% | 20% | 50% | 70% | 10% | –
3 | O=S(=O)([O-])CCC[n+]1ccc(-c2cnon2)cc1 [Compound A18] | 10% | 50% | 50% | 30% | 40% | 20% | 50% | 100% | 30% | –
4 | O=S(=O)([O-])CC[n+]1ccc(-c2cnns2)cc1 [Compound A19] | 30% | 40% | 50% | 30% | 40% | 50% | 50% | 100% | 30% | –
5 | O=C(O)C[n+]1ccc(-c2nccs2)cc1 [Compound A24] | 0% | 0% | 40% | 10% | 0% | 20% | 40% | 0% | 0% | –
6 | O=C(O)CC[n+]1ccc(-c2nccs2)cc1 [Compound A25] | 0% | 0% | 10% | 10% | 0% | 10% | 0% | 0% | 10% | –
7 | Cn1nnnc1-c1cc[n+](CCS(=O)(=O)[O-])cc1 [Compound A26] | 10% | 10% | 10% | 20% | 10% | 10% | 20% | 0% | 10% | –
8 | Cn1nnc(-c2cc[n+](CCS(=O)(=O)[O-])cc2)n1 [Compound A27] | 0% | 0% | 10% | 0% | 0% | 10% | 20% | 10% | 0% | –
9 | Cn1nnnc1-c1cc[n+](CC(=O)O)cc1 [Compound A33] | 0% | 0% | 40% | 20% | 0% | 0% | 40% | 90% | 20% | –
10 | Cn1nnc(-c2cc[n+](CC(=O)O)cc2)n1 [Compound A34] | 0% | 0% | 0% | 0% | 0% | 0% | 0% | 70% | 0% | –
11 | Cc1nnc(-c2cc[n+](CCCS(=O)(=O)[O-])cc2)o1 [Compound A36] | 0% | 10% | 60% | 30% | 10% | 30% | 60% | 70% | 10% | –
12 | O=S(=O)([O-])CC[n+]1ccc(-c2nc(C(F)(F)F)co2)cc1 [Compound A46] | 0% | 0% | 0% | 0% | 0% | 0% | 0% | 30% | 0% | –
13 | CCOP(C)(=O)C[n+]1ccc(-c2ncns2)cc1 (stereo not drawn) [Compound A47, 5-[1-[[ethoxy(methyl)phosphoryl]methyl]pyridin-1-ium-4-yl]-1,2,4-thiadiazole trifluoromethanesulfonate] | – | – | – | – | – | – | – | – | – | pest or weed control at 500 g/ha (Lolium perenne (LOLPE)): 0%; pest or weed control at 500 g/ha [1]: 10%; pest or weed control at 500 g/ha [2]: 60%; pest or weed control at 500 g/ha [3]: 10%; pest or weed control at 500 g/ha (Setaria faberi (SETFA)): 10%; pest or weed control at 500 g/ha [4]: 10%; pest or weed control at 500 g/ha [5]: 10%; pest or weed control at 500 g/ha [6]: 60%; pest or weed control at 500 g/ha (Eleusine indica (ELEIN)): 10%
14 | O=C(O)CC[n+]1ccc(-c2nc(C(F)(F)F)ns2)cc1 [Compound A48, 3-[4-[3-(trifluoromethyl)-1,2,4-thiadiazol-5-yl]pyridin-1-ium-1-yl]propanoic acid acetate] | – | – | – | – | – | – | – | – | – | pest or weed control at 125 g/ha (Lolium perenne (LOLPE); [8]): 10%; pest or weed control at 125 g/ha [1, 8]: 0%; pest or weed control at 125 g/ha [2, 8]: 10%; pest or weed control at 125 g/ha [3, 8]: 0%; pest or weed control at 125 g/ha (Setaria faberi (SETFA); [8]): 20%; pest or weed control at 125 g/ha [4, 8]: 0%; pest or weed control at 125 g/ha [5, 8]: 30%; pest or weed control at 125 g/ha [6, 8]: 90%; pest or weed control at 125 g/ha (Eleusine indica (ELEIN); [8]): 0%
15 | O=C(O)C[n+]1ccc(-c2csnn2)cc1 [Compound A53] | 0% | 10% | 10% | 0% | 10% | 20% | 20% | 10% | 0% | –
16 | Cn1nnnc1-c1cc[n+](CS(=O)(=O)[O-])cc1 [Compound A57] | 0% | 60% | 80% | 30% | 0% | 0% | 20% | 100% | 20% | –
17 | O=S(=O)([O-])OCC[n+]1ccc(-c2nnco2)cc1 [Compound A64] | 10% | 50% | 30% | 30% | 20% | 20% | 30% | 50% | 20% | –
